The structures appear in SMILES notation.

The results in this text go back to patent publication US20120328569A1, “INHIBITORS OF HEPATITIS C VIRUS NS5B POLYMERASE” (priority 2010, published 2012).

For the first test, the system named is HCV genotype 1b replicon. Briefly: HCV replicon assay, cell ELISA with antibody to replicon-encoded NS3/4A (genotype 1b replicon). The class given is cell-based, hepatitis C virus. The settings on record: Hepatitis C virus, 96 h, read-out: 1b IC50(nM), HCV genotype 1b replicon; 96 hours incubation; NS3/4A cell ELISA. In outline:
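An ELISA on lysed cells, using an antibody against NS3/4A protease, served as the proxy for replicon RNA. Cells had first been exposed for 96 h to serially diluted compound in G418-free conditions. Percent of DMSO control was fitted with a four-parameter function to give IC50.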
A general note: In antiviral work, replicon cells carry a viral genome segment that copies itself.
Consider `CNC(=O)c1c(-c2ccc(F)cc2)oc2cc(N(C)S(C)(=O)=O)c(-c3ccc(OC)c(-c4nc5c(F)cccc5o4)c3)cc12` [Example 411, 5-[3-(4-Fluoro-benzooxazol-2-yl)-4-methoxy-phenyl]-2-(4-fluoro-phenyl)-6-(methanesulfonyl-methyl-amino)-benzofuran-3-carboxylic acid methylamide], for which the IC50 was 7.1 nM.
The same measure, in the same setting: the same measure for `CNC(=O)c1c(-c2ccc(F)cc2)oc2cc(N(C)S(C)(=O)=O)c(-c3ccc(S(C)(=O)=O)c(-c4nc5c(Cl)cccc5o4)c3)cc12` [Example 420]: 5.08 nM.
In the case of `CNC(=O)c1c(-c2ccc(F)cc2)oc2cc(N(C)S(C)(=O)=O)c(-c3cc(-c4nc5c(F)cccc5o4)c4oc(=O)[nH]c4c3)cc12` [Example 425], the IC50 is 3.04 nM.
The same measure, in the same setting: the same measure for `CNC(=O)c1c(-c2ccc(F)cc2)oc2cc(N(C)S(C)(=O)=O)c(-c3ccc(OC)c(-c4nc5c(CC#N)cccc5[nH]4)c3)cc12` [Example 427]: 4.35 nM; for `CNC(=O)c1c(-c2ccc(F)cc2)oc2cc(N(C)S(C)(=O)=O)c(-c3ccc(OC)c(-c4nc5c(C(C)(C)C#N)cccc5o4)c3)cc12` [Example 428]: 29.1 nM.
With `CNC(=O)c1c(-c2ccc(F)cc2)oc2cc(N(C)S(C)(=O)=O)c(-c3ccc(CC#N)c(-c4nc5c(F)cccc5o4)c3)cc12` [Example 429], the IC50 worked out at 4.91 nM.
As for `CNC(=O)c1c(-c2ccc(F)cc2)oc2cc(N(C)S(C)(=O)=O)c(-c3cc4c(c(-c5nc6c(F)cccc6o5)c3)OCCO4)cc12` [Example 436], the IC50 was 4.37 nM.
For the compound `CNC(=O)c1c(-c2ccc(F)cc2)oc2cc(N(C)S(C)(=O)=O)c(-c3ccc(-c4ccco4)c(-c4nc5c(F)cccc5o4)c3)cc12` [Example 478], the IC50 was 8.65 nM.
On the same count and under the same terms, the same measure for `CNC(=O)c1c(-c2ccc(F)cc2)oc2cc(N(C)S(C)(=O)=O)c(-c3ccc(-c4cnco4)c(-c4nc5c(F)cccc5o4)c3)cc12` [Example 479]: 1.95 nM.
The same measure, in the same setting: the same measure for `CNC(=O)c1c(-c2ccc(F)cc2)oc2cc(N(C)S(C)(=O)=O)c(-c3ccc(-c4cnco4)c(-c4nc5c(Cl)cccc5o4)c3)cc12` [Example 480]: 3.01 nM.
Consider `CNC(=O)c1c(-c2ccc(F)cc2)oc2cc(N(C)S(C)(=O)=O)c(-c3ccc(N4CCOC4=O)c(-c4nc5c(F)cccc5o4)c3)cc12` [Example 483], for which the IC50 was 2.48 nM.

Still in this test, the particulars now being: Hepatitis C virus, 96 h, read-out: Replicon 1b IC50 (nM), HCV genotype 1b replicon cells, 96 hours incubation, NS3/4A ELISA readout.
With `CNC(=O)c1c(-c2ccc(F)cc2)oc2cc(N(C)S(C)(=O)=O)c(-c3ccc(OC)c(-c4nc5c(C#N)cccc5o4)c3)cc12` [Example 403, 5-(3-(4-cyanobenzo[d]oxazol-2-yl)-4-methoxyphenyl)-2-(4-fluorophenyl)-N-methyl-6-(N-methylmethylsulfonamido)benzofuran-3-carboxamide], the IC50 stood at 3.8 nM.
For the compound `CNC(=O)c1c(-c2ccc(F)cc2)oc2cc(N(C)S(C)(=O)=O)c(-c3ccc(OC)c(-c4nc5cc(F)ccc5o4)c3)cc12` [Example 404], the IC50 came out at 2.6 nM.
As to `CNC(=O)c1c(-c2ccc(F)cc2)oc2cc(N(C)S(C)(=O)=O)c(-c3ccc(Cl)c(-c4nc5c(F)cccc5o4)c3)cc12` [Example 405], the IC50 amounted to 4.7 nM.
On the same count and under the same terms, the value for `CNC(=O)c1c(-c2ccc(F)cc2)oc2cc(N(C)S(C)(=O)=O)c(-c3cc(Cl)cc(-c4nc5c(F)cccc5o4)c3)cc12` [Example 406] was 15.1 nM; that for `CNC(=O)c1c(-c2ccc(F)cc2)oc2cc(N(C)S(C)(=O)=O)c(-c3ccc(OC)c(-c4nc5cccc(C#N)c5o4)c3)cc12` [Example 407] was 2.8 nM; that for `CNC(=O)c1c(-c2ccc(F)cc2)oc2cc(N(C)S(C)(=O)=O)c(-c3ccc(OC)c(-c4nc5c(F)cc(F)cc5o4)c3)cc12` [Example 408] was 3.8 nM.
Still for that read-out and setting: the same measure for `CNC(=O)c1c(-c2ccc(F)cc2)oc2cc(N(C)S(C)(=O)=O)c(-c3ccc(OC)c(-c4nc5c(F)ccc(F)c5o4)c3)cc12` [Example 409]: 2.1 nM.
For the compound `CNC(=O)c1c(-c2ccc(F)cc2)oc2cc(N(C)S(C)(=O)=O)c(-c3ccc(OC)c(-c4nc5cc(F)cc(F)c5o4)c3)cc12` [Example 410], the IC50 was determined as 0.5 nM.
